From EP0673649A1, “Pharmaceutical compositions for the prolonged release of trimetazidine after oral administration” (ADIR ET COMPAGNIE, priority 1994, dated 1995)

How the values were obtained:
[1] = plasticizer added at 20 % to Eudragit RS® film; measured with chlorhydrate de phénylpropanolamine; cited from earlier work
[2] = immediate-release oral forms; background statement; cited from earlier work
[3] = solubility in water of trimetazidine dihydrochloride; assay type: physicochemical; details: read-out: solubilité du dichlorhydrate dans l'eau
Protocol: Le poids moléculaire de la trimétazidine sous forme de base est de 266,33 et la solubilité du dichlorhydrate dans l'eau supérieure à 1000 mg/ml. De ce fait, il était très difficile d'obtenir des comprimés matriciels contrôlant la libération du principe actif sur plus de 16 heures. Ce problème a été résolu par l'utilisation du système réservoir décrit dans la présente invention.

[4] = in vitro dissolution / release of trimetazidine dihydrochloride from reservoir forms; assay type: physicochemical; details: release of trimetazidine dihydrochloride through a film containing this plasticizer (figure 1)

CCOC(=O)c1ccccc1C(=O)OCC [Diéthylphtalate]
Perméabilité [1]: 14.8 mg.cm⁻².h⁻¹

COc1ccc(CN2CCNCC2)c(OC)c1OC [dichlorhydrate de trimétazidine, 1-(2,3,4-triméthoxybenzyl)pipérazine]
demi-vie plasmatique [2]: < 6 heures
solubility [3]: > 1000 mg/mL

CC(=O)OCC(COC(C)=O)OC(C)=O [Triacétine]
temps de latence [4]: très long qui peut atteindre quatre heures
Perméabilité [1]: 6.2 mg.cm⁻².h⁻¹
